According to US6544966B1, “Agents promoting laminin production in skin cells” (Shiseido Company, Ltd., priority 1998, dated 2003):
“And” between values parts separate entries of the source, which are not always exact repeats. Equal values may be shown once.

System: epidermic stratum corneum cells
Test: Tests for the ability to produce laminin 5 (culture of epidermic stratum corneum cells, sandwich ELISA)
Type: cell-based, human
Protocol: Epidermic stratum corneum cells were isolated from the human preputium and cultured in an epidermic cell growth medium (KGM) having a low calcium concentration. To this culture medium were added bovine pituitary extract and EGF. After the cells were cultured in KGM up to the fourth generation, and treated with trypsin and EDTA to suspend adherent cells. Then, the culture was filtered to remove cell aggregates and thereby obtain a homogeneous cell suspension. The cells were collected by centrifugation and resuspended in DMEM-F12 (2:1)-0.1% BSA so as to give a cell density of 8×10^4 per ml. 0.5 ml each of this cell suspension was added to 0.5 ml of the same medium containing a twofold concentration of each test sample. Using a 24-well plate, incubation was carried out at 37° C. for 24 hours. After completion of the incubation, the culture supernatant was transferred to an Eppendorf tube and centrifuged at 15,000 rpm for 5 minutes. The supernatant was transferred to a new tube and stored at−20° C. till the day for the determination of laminin 5. In order to solubilize laminin 5 in the cells and bound to the culture plastics, a tris-HCl buffer (pH 7.4) containing various surfactants was added to each well and allowed to stand at −20° C. overnight. On the following day, the mixture was ultrasonicated and frozen again. On the following day, the mixture was thawed again and centrifuged at 15,000 rpm for 5 minutes. The supernatant was transferred to a tube and stored at −20° C. till the day for the determination of laminin 5.
Laminin 5 present in the culture supernatant and the cell layer was determined by the sandwich ELISA method. A monoclonal antibody (BM165) to the laminin α3 chain of laminin 5 was attached to a solid layer of a 96-well ELISA plate. In order to measure laminin 5 in a sandwiched manner, a monoclonal antibody (6F12) to the laminin β3 chain was previously biotinized (b-6F12) and used as the other antibody. […] A sample was added to each of the wells in which a 3% gelatin-phosphate buffer solution containing b-6F12 had previously been placed. The final degree of dilution of the sample in the wells was 1/4 for the culture medium and 1/10 for the cell layer. After the antigen-antibody reaction was carried out at 37° C. for 2 hours, the wells were washed, and an avidin HRP (horseradish peroxidase) solution was added thereto and reacted for a period of 30 minutes to 1 hour. After washing, a solution of ABTS serving as a substrate for HRP was added thereto and the absorbance at 405 nm was measured with an ELISA plate reader. A calibration curve was constructed over a range of 0 to 40 ng/ml.
The yield of laminin 5 was expressed by the sum of the amount liberated into the culture medium and the amount remaining in the cell layer.

Substance | Relative yield of laminin 5 based on control with no addition (%) Mean ± Standard deviation
lysophosphatidic acid [LPA-C18: 1] | 225.4 ± 12.5% and 254.0 ± 8.7%
lysophosphatidylcholine [LPC-C12: 0, reference compound] | 88.6 ± 5.1%
lysophosphatidylcholine [LPC-C14: 0] | 100.8 ± 5.6%
lysophosphatidylcholine [LPC-C16: 0] | 104.5 ± 3.3%
lysophosphatidylcholine [LPC-C18: 0] | 112.4 ± 8.0%
lysophosphatidylcholine [LPC-C18: 1] | 112.7 ± 6.7% and 147.4 ± 5.2%
lysophosphatidylcholine [LPC-C18: 2] | 133.6 ± 1.3% and 174.0 ± 5.4%
